Patent US20230257653A1, “FRACTAL FORMULATIONS” (NANOGYRE Sprl., priority 2020, published 2023)
≈ marks a conversion by molar mass, not a printed value. Where two headings read alike, the source gives them in different places.

Assays:
[1] = Visual stability of the mother solution diluted in distilled water (pH 7) or acetic acid (pH 2.2); type: physicochemical; settings: absence of light, 24 h
Experimental: (§1) 400 μl of the solution produced are taken and poured into a tube of 5 ml of distilled water (pH 7).
400 μl of the solution produced are taken and poured into a tube of 5 ml of acetic acid (pH 2.2).
as §1
200 μl of the solution produced are taken and poured into a tube of 5 ml of distilled water (pH 7).
200 μl of the solution produced are taken and poured into a tube of 5 ml of acetic acid (pH 2.2).
250 μl of the solution produced are taken and poured into a tube of 5 ml of distilled water (pH 7).
250 μl of the solution produced are taken and poured into a tube of 5 ml of acetic acid (pH 2.2).

[2] = Solubilization of hydrophobic cargo in betaine/Polysorbate 80/water liquid crystal, centrifugation 4000 rpm
Experimental: Mixing 2 ml of distilled water and 40 μL of Polysorbate 80, then adding 400 mg of pure curcumin, manually mixing and then adding 2 g of betaine all again mixed by vigorous manual stirring. The mixture of the 4 ingredients is then subjected for 20 minutes to a centrifugation of 4000 rpm.
(§2) The mixture of the 4 ingredients is then subjected for 30 minutes to a centrifugation of 4000 rpm.
The mixture of the 4 ingredients is then subjected for 40 minutes to a centrifugation of 4000 rpm.
as §2
Mixing 2 ml of distilled water and 35 μL of Polysorbate 80, then adding 50 mg of Clofazimine, mixing manually and then subjecting to a centrifugation of 4000 rpm and then adding 2 g of betaine all again mixed by vigorous manual stirring. The mixture of the 4 ingredients is then subjected for 30 minutes to a centrifugation of 4000 rpm.

[3] = Storage stability of the mother solution (deposition); settings: no ethanol
[4] = substance alone; cited from earlier work
[5] = octanol/water partition coefficient; cited from earlier work
[6] = Redissolution of dried, ground liquid crystal powders and visual pH variation test; type: physicochemical; settings: for changes of resolubilized dry powder solution over time: absence of light, 24 h
Experimental: The remaining solution of the preceding example is poured into a glass Petri dish (diameter 35 mm) and subjected to drying at 60° C. in a hot air dehydrator (Stockli).
The dry product is then ground until it reaches±50 Mesh and stored in the absence of light and moisture for 10 days.
Next, 100 mg of dry powder are taken and poured into a tube of 5 ml of distilled water (pH 7).
Next, 100 mg of dry powder are taken and poured into a tube of 5 ml of acetic acid (pH 2.2).
Then this acidic solution is brought to an alkaline pH of 8 by adding sodium bicarbonate, in order to mimic the conditions of the pH differences encountered in the stomach and then the intestine.

[7] = DLS (Dynamic Light Scattering) particle size of resolubilized dry powder, Zetasizer; type: physicochemical; settings: 100 mg dry powder in 100 ml pure water, kept in the dark 14 days
Experimental: 100 mg of dry powder of Curcumin of the preceding example are dissolved in 100 ml of pure water before being kept in the dark for 14 days. This solution is then evaluated with DLS (Dynamic Light Scattering) in a Zetasizer apparatus (University of Namur).

[8] = mother solution poured into 5 ml acetic acid (pH 2.2)
[9] = mother solution poured into 5 ml distilled water (pH 7)

Row | SMILES | changes of diluted solution over time [1, 8] | changes of diluted solution over time [1, 9] | estimated concentration of mother solution after centrifugation ([2]; 2 ml water, Polysorbate 80, 2 g betaine, no ethanol) [mg/mL] | stability of mother solution on storage [3] | Solubility in Water [4] [µg/mL] | Log P [5] | estimated concentration of mother solution after centrifugation [2] [mg/mL] | factor by which solubility in water was multiplied [2] | solubilization result (visual) [2] | dissolution of dry powder ([6]; 100 mg dry powder (stored 10 days) in 5 ml acetic acid (pH 2.2)) | dissolution of dry powder ([6]; 100 mg dry powder (stored 10 days) in 5 ml distilled water (pH 7)) | changes of resolubilized dry powder solution over time ([6]; 5 ml acetic acid (pH 2.2)) | changes of resolubilized dry powder solution over time ([6]; 5 ml distilled water (pH 7)) | stability of the acidic solution brought to alkaline pH ([6]; pH 2.2 solution brought to pH 8 with sodium bicarbonate) | average particle size of the solution [7] [nanometers] | polydispersity [7] | non-solubilized fraction remaining in the bottom of the tube (pellet/base) [2] | concentration of mother solution weighted for the pellet/base ([2]; 2 ml water, 40 μL Polysorbate 80, 2 g betaine, no ethanol) [µg/mL]
1 | C=C(C)[C@@H]1CCC(C)=C[C@H]1c1c(O)cc(CCCCC)cc1O [Cannabidiol] | no changes over time | no changes over time | 47 | remained stable without any deposition, or modification for a year | – | – | – | – | – | – | – | – | – | – | – | – | – | –
2 | CC(C)/N=c1\cc2n(-c3ccc(Cl)cc3)c3ccccc3nc-2cc1Nc1ccc(Cl)cc1 [Clofazimine] | no changes over time | no changes over time | – | – | 1.51 (≈ 3.19 µM) | 7.39 | 14.7 | 9730 | completely solubilized | immediately solubilizes | immediately solubilizes | no changes over time | no changes over time | remains stable without any precipitation or modification | – | – | – | –
3 | COc1cc(/C=C/C(=O)CC(=O)/C=C/c2ccc(O)c(OC)c2)ccc1O [Curcumin] | no changes over time | no changes over time | – | – | 5.75 (≈ 15.6 µM) | – | 80 | 10,000 | – | – | – | – | – | – | ≤ 10 | very low | 30-40% | 60000
